According to patent US8901159B2, “Inhibition of inflammation by simultaneous blockade of multiple prostanoid receptors” (Allergan, Inc., priority 2010, dated 2014):

Legend:
[1] = system: human recombinant prostanoid receptor (DP1, EP1-4, FP, IP and TP); test: Prostanoid receptor blockade profile stated in words; assay type: cell-based
Description: (§1) The above compounds were tested for PG antagonist activity as follows using human recombinant prostanoid receptor (DP1, EP1-4, FP, IP and TP) stable cell lines:
(§2) In order to measure the response of Gs and Gi coupled prostanoid receptors as a Ca^2+ signal, chimeric G protein cDNAs were used. Stable cell lines over-expressing human prostanoid DP1, EP1-4, FP, IP, and TP receptors were established as described in U.S. Ser. No. 61/410,153.

[2] = system: laser-induced neovascularization (CNV); test: Rat laser-induced neovascularization (CNV) model; assay type: in vivo; conditions: formulated in 70% PEG, FIG. 15, vs vehicle, EXAMPLE 8, SC-51322 and their combination
Description: The compound of Example 1 was also evaluated for activity in an in-vivo Rat laser-induced neovascularization (CNV) model.
In this test, compounds were formulated in 70% polyethylene glycol (PEG). CNV is induced by laser burn.

[3] = system: Experimental autoimmune uveoretinitis (EAU); test: Rat Experimental Autoimmune Uveoretinitis (EAU) model; assay type: in vivo; conditions: FIG. 14
[4] = molecular target: T1, human prostanoid FP receptor (Homo sapiens, UniProt P43088); test: PG antagonist activity, Ca2+ signal in human recombinant prostanoid receptor stable cell line; assay type: cell-based; conditions: parameter and unit not given
T1 construct: expressed in transfected cells
Description: as §1, §2

[5] = molecular target: T2, human prostanoid EP3 receptor (Homo sapiens, UniProt P43115); test: as above; assay type: cell-based; conditions: parameter and unit not given
T2 construct: expressed in transfected cells
T2 sequence (P43115 1-390): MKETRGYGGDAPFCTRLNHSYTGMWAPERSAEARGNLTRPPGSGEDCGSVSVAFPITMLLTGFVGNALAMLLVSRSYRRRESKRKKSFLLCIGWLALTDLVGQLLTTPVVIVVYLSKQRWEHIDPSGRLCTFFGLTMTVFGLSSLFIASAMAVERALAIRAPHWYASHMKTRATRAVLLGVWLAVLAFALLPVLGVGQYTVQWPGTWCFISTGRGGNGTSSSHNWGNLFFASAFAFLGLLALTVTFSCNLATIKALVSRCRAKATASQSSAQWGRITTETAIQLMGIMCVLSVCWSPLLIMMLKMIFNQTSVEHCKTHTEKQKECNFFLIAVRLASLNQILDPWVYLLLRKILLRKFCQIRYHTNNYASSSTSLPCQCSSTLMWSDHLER
Description: as §1, §2

[6] = molecular target: T3, human prostanoid EP1 receptor (Homo sapiens, UniProt P34995); test: as above; assay type: cell-based; conditions: parameter and unit not given
T3 construct: expressed in transfected cells
T3 sequence (P34995 1-402): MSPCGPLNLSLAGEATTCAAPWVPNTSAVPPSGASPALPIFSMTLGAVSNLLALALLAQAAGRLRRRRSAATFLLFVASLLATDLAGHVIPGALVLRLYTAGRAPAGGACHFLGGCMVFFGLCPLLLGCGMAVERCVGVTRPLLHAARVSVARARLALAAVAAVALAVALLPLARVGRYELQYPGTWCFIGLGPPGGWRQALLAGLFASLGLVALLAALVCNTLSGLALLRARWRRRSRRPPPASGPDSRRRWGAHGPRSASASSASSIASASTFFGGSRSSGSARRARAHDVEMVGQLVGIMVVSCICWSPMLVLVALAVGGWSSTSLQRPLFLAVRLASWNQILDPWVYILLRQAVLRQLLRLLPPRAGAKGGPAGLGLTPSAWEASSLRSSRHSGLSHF
Description: as §1, §2

[7] = molecular target: T4, human prostanoid TP receptor (Homo sapiens, UniProt P21731); test: as above; assay type: cell-based; conditions: parameter and unit not given
T4 construct: expressed in transfected cells
T4 sequence (P21731 1-343): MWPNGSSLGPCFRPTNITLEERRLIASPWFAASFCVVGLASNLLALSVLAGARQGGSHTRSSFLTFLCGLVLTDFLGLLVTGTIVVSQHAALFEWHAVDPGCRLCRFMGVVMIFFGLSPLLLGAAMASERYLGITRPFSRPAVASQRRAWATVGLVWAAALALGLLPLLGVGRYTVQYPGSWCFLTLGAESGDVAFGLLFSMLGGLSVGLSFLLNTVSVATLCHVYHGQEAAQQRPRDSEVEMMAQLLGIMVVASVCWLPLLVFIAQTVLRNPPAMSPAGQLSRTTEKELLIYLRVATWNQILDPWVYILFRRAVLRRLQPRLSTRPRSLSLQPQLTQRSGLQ
Description: as §1, §2

[8] = molecular target: T5, human prostanoid DP1 receptor (Homo sapiens, UniProt Q13258); test: as above; assay type: cell-based; conditions: parameter and unit not given
T5 construct: expressed in transfected cells
T5 sequence (Q13258 1-359): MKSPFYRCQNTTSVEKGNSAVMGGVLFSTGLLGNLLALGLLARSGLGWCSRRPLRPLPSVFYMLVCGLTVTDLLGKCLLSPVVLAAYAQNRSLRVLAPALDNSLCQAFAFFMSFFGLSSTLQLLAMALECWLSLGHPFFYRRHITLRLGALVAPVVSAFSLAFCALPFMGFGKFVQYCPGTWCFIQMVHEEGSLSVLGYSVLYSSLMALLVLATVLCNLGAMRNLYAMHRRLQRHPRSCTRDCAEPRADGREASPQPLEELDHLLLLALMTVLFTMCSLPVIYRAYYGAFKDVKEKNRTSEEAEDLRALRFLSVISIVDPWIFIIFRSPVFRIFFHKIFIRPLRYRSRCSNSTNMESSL
Description: as §1, §2

[9] = molecular target: T6, human prostanoid EP4 receptor (Homo sapiens, UniProt P35408); test: as above; assay type: cell-based; conditions: parameter and unit not given
T6 construct: expressed in transfected cells
Description: as §1, §2

[10] = molecular target: T7, human prostanoid EP2 receptor (Homo sapiens, UniProt P43116); test: as above; assay type: cell-based; conditions: parameter and unit not given
T7 construct: expressed in transfected cells
Description: as §1, §2

[11] = molecular target: T8, human prostanoid IP receptor (Homo sapiens, UniProt P43119); test: as above; assay type: cell-based; conditions: parameter and unit not given
T8 construct: expressed in transfected cells
Description: as §1, §2

[12] = system: human recombinant prostanoid receptor (DP1, EP1-4, FP, IP and TP); conditions: stated in words; IUPHAR database referred to; cited from earlier work
[13] = rat EAU, vs all of the comparators

T6 sequence (P35408 whole entry): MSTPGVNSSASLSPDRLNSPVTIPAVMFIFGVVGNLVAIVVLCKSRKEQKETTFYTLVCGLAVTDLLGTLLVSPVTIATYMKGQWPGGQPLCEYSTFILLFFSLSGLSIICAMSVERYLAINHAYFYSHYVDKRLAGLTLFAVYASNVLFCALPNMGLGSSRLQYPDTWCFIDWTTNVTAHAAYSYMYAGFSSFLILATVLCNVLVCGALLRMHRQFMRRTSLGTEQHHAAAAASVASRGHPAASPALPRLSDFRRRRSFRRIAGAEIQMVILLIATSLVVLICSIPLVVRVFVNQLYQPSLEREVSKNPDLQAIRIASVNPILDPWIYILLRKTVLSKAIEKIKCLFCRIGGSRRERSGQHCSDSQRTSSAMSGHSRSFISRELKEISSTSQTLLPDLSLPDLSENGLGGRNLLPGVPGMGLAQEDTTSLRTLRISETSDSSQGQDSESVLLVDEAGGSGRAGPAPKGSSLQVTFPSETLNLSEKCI
T1 sequence (P43088 whole entry): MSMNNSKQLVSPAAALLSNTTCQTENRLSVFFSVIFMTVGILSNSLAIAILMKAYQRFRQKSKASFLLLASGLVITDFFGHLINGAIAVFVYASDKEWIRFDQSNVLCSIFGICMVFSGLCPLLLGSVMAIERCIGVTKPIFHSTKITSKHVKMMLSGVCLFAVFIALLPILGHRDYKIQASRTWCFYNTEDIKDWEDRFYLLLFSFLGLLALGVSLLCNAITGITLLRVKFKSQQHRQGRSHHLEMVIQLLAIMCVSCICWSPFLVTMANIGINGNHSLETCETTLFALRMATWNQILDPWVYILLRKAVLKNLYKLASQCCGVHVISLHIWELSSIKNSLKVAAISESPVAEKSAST
T8 sequence (P43119 whole entry): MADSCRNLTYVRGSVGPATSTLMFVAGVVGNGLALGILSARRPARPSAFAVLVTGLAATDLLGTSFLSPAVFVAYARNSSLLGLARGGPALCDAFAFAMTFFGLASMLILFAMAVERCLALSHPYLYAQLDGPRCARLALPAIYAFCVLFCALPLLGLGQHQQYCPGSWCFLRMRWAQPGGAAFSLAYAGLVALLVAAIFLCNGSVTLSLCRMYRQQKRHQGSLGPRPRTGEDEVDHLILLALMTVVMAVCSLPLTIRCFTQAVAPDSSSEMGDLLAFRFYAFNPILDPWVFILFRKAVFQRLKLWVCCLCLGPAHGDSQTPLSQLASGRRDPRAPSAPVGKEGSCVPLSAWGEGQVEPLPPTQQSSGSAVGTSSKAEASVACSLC
T7 sequence (P43116 whole entry): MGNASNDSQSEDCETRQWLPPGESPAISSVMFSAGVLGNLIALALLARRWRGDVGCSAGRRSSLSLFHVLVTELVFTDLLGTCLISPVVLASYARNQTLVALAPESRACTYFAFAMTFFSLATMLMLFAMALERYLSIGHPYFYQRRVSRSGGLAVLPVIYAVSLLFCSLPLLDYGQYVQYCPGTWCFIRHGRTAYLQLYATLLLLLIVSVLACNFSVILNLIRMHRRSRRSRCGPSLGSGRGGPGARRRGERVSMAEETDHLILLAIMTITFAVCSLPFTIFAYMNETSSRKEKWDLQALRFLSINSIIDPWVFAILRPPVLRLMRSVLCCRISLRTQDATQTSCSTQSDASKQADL

Structure (SMILES)	prostanoid receptor selectivity / blockade profile [1]	clinical score (angiostatic efficacy) [2]	clinical score ([3]; rat EAU induced by M18 peptide, vs vehicle, EXAMPLE 8, SC-51322 and their combination)	amount of invasive cells in the aqueous humor [3, 13]	amount of protein in the aqueous humor [3, 13]	FP (PG antagonist activity) [4]	EP3 (PG antagonist activity) [5]	EP1 (PG antagonist activity) [6]	TP (PG antagonist activity) [7]	DP (PG antagonist activity) [8]	EP4 (PG antagonist activity) [9]	EP2 (PG antagonist activity) [10]	IP (PG antagonist activity) [11]	prostanoid receptor blockade profile of comparator [12]
O=C(O)CCc1ccc(F)cc1C[C@H]1[C@@H]2CCC(O2)[C@H]1c1nc(C(=O)NCCCCC2CCCCC2)co1 [EXAMPLE 8, 3-(2-{(1S,2R,3S)-3-[4-(4-Cyclohexyl-butylcarbamoyl)-oxazol-2-yl]-7-oxa-bicyclo[2.2.1]hept-2-ylmethyl}-4-fluoro-phenyl)-propionic acid]	selective for DP1, EP4, FP and TP receptors													
O=C(O)/C=C/c1ccc(F)cc1C[C@@H]1C(c2nc(C(=O)NCCCCC3CCCCC3)co2)C2CC[C@H]1O2 (stereo partly drawn) [Example 1, (E)-3-(2R-{3R-[4-(4-Cyclohexyl-butylcarbamoyl)-oxazol-2-yl]-7-oxa-bicyclo[2.2.1]hept-2-ylmethyl}-4-fluoro-phenyl)-acrylic acid]		better clinical score than any of the comparators except the combination	better clinical score than any of the comparators except the combination	lower amount	lower amount	59	5500	380	<1	71	60			
CCCCCCCCNC(=O)c1coc(C2C3CCC(O3)C2Cc2cc(F)ccc2/C=C/C(=O)O)n1 (stereo not drawn) [Example 2]						300		2000	<1	220	120			
CCCCCCCCCNC(=O)c1coc(C2C3CCC(O3)C2Cc2cc(F)ccc2/C=C/C(=O)O)n1 (stereo not drawn) [Example 3]						230		4100	<1	270	180			
CCCCCCCCCNC(=O)c1coc(C2C3CC[C@@H](O3)[C@@H]2Cc2cc(F)ccc2CCC(=O)O)n1 (stereo partly drawn) [Example 4, 3-{2R-[3R-(4-Nonylcarbamoyl-oxazol-2-yl)-7-oxa-bicyclo[2.2.1]hept-2-ylmethyl]-4-fluoro-phenyl}-propionic acid]						12	4100	660	<1	17	92	4300	1900	
CCCCCCCCNC(=O)c1coc(C2C3CCC(O3)C2Cc2cc(F)ccc2CCC(=O)O)n1 (stereo not drawn) [Example 5]						25	4700	1400	<1	55	160		2400	
O=C(O)CCc1ccc(F)cc1CC1C2CCC(O2)C1c1nc(C(=O)NCCCCC2CCCCC2)co1 (stereo not drawn) [Example 6]						35		1750	<1	50	170			
O=C(CCSCc1ccco1)NNC(=O)N1Cc2ccccc2Oc2ccc(Cl)cc21 [SC-51322]														blocks the EP1 receptor, only
